The results in this text go back to patent publication EP1614683B1, “Indazole compounds and pharmaceutical compositions for inhibiting protein kinases, and methods for their use” (priority 1999, dated 2001).

Read-outs that look alike come from different tables or passages of the source. Some results are limits rather than exact numbers.

In general, Ki refers to the dissociation constant of the complex between target and ligand, obtained from inhibition or displacement. A word on the inhibition: it is the drop in the measured response relative to a control, in per cent. As usually defined, the IC50 is the midpoint of a concentration-inhibition curve. One may read the % Inhibition as the change of the read-out against control, counted positive when it falls. What is called AUC is concentration integrated over time. Low readings indicate less exposure, high ones more exposure.

One series addresses human FGF-R1 (Homo sapiens, UniProt P11362, C488A/C584S/L457V). Description: FGF-R spectrophotometric assay. It counts as biochemical. Conditions: for inhibition at 1 µM: compound concentration 1 µM, read-out: FGF-P* (% inhibition). Here is the method: The spectrophotometric assay was carried out as described above for VEGF-R2, except for the following changes in concentration: FGF-R = 50 nM, ATP = 2 mM, and poly(E4Y1) =15 mM.

In the next series the target is LCK tyrosine kinase (Homo sapiens, UniProt P06239, C224D/P223M). The series can be described thus: LCK spectrophotometric assay. The settings on record: read-out: Lck-P* (% inhibition). It counts as biochemical. Here is the method:
The spectrophotometric assay was carried out as described above for VEGF-R2, except for the following changes in concentration: LCK = 60 nM, MgCl2 = 0 mM, poly(E4Y1) = 20 mM.

For another series, the target named is T1, human CHK1 (FL-CHK1) (Homo sapiens, UniProt O14757).
T1 construct: C-terminally His-tagged full-length human CHK1 (FL-CHK1) was expressed using the baculovirus/insect cell system; made in house; host or cells: baculovirus/insect cell system
T1 sequence (O14757 1-476): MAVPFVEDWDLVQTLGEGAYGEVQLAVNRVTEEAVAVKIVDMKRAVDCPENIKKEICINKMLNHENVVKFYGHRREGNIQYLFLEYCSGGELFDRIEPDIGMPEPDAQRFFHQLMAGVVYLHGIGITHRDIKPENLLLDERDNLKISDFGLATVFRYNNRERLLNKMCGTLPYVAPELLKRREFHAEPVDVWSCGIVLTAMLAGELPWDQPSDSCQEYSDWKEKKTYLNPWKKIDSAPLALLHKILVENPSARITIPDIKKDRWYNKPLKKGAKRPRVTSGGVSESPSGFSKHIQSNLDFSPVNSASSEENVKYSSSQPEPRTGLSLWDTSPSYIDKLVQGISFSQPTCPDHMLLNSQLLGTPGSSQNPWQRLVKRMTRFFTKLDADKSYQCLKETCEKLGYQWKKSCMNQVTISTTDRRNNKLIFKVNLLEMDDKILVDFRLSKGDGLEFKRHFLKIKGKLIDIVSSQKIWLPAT
Description: CHK1 coupled spectrophotometric assay. The class given is biochemical. The settings on record: Table 1; read-out: CHK -1* (Ki). From the text:
CHK1 Construct for Assay: C-terminally His-tagged full-length human CHK1 (FL-CHK1) was expressed using the baculovirus/insect cell system. […] The protein was purified by conventional chromatographic techniques.
The production of ADP from ATP that accompanies phosphoryl transfer to the synthetic substrate peptide Syntide-2 ([…]) was coupled to oxidation of NADH using phosphoenolpyruvate (PEP) through the actions of pyruvate kinase (PK) and lactic dehydrogenase (LDH). The oxidation of NADH was monitored by following the decrease of absorbance at 340 nm (∈340 = 6.22 cm^-1 mM^-1) using a HP8452 spectrophotometer. […] Assays were initiated with 10 nM of FL-CHK1. Ki values were determined by measuring initial enzyme activity in the presence of varying concentrations of test compounds. The data were analyzed using Enzyme Kinetic and Kaleidagraph software.

For series [1], the target named is T2, phosphorylated Tie-2 (aa 775-1122) (Homo sapiens, UniProt Q02763).
T2 construct: 4 to 12 nM phosphorylated Tie-2 (aa 775-1122); made in house; host or cells: insect cells
T2 sequence (Q02763 775-1122): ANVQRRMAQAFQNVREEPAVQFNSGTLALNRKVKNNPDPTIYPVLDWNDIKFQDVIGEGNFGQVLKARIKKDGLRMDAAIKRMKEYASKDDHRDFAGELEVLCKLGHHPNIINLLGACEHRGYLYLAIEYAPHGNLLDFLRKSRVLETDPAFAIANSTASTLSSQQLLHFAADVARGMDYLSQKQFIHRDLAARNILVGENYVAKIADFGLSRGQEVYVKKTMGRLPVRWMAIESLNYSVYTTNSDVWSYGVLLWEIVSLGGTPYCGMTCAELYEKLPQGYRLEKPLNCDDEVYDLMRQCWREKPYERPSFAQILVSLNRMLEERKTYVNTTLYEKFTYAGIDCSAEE
Description: TIE-2 spectrophotometric assay. The class given is biochemical. Conditions: for inhibition at 1 µM: Table 5, bold values spectrophotometric assay, non-bolded DELFIA assay (bold not visible here), read-out: % Inhibition @ 1 µM Tie2-P. The protocol: This construct also carries a R774M mutation, which serves as the initiating methionine residue in translation.
The kinase-catalyzed production of ADP from ATP that accompanies phosphoryl transfer to the random copolymer poly(Glu4 Tyr) was coupled to the oxidation of NADH through the activities of pyruvate kinase (PK) and lactate dehydrogenase (LDH). NADH conversion to NAD* was monitored by the decrease in absorbance at 340 nm (ε = 6.22 cm^-1mM^-1) using a Beckman DU650 spectrophotometer. Typical reaction solutions contained 1 mM phosphoenolpyruvate, 0.24 mM NADH, 40 mM MgCl2, 5 mM DTT, 2.9 mg/mL poly(Glu4Tyr), 0.5 mM ATP, 15 units/mL PK, 15 units/mL LDH in 100 mM HEPES, pH 7.5. […]

The test system of series [2] is human umbilical vein endothelial cells (HUVEC). The series can be described thus: HUVEC proliferation assay (VEGF-stimulated, MTT). It counts as cell-based. Conditions: Homo sapiens, HUVEC.
Series [3] relates to lung cancer cells (line MV522). Description: Cancer cell proliferation (MV522) assay. It counts as cell-based. Here is the method:
The protocol for assessing cellular proliferation in cancer cells is similar to that used for assessments in HUVEC cells. Two thousand lung cancer cells (line MV522, acquired from American Tissue Cultural Collection) were seeded in growth media (RPMI1640 medium supplemented with 2 mM glutamine and 10% FBS). Cells are allowed to attach for 1 day prior to addition of test agents and /or vehicles. Cells are treated simultaneously with the same test agents used in the HUVEC assay. Cellular proliferation is quantified by MTT dye reduction assay 72 hours after exposure to test agents. The total length of the assay is 4 days vs. 5 for HUVEC cells because MV522 cells are not exposed to starvation medium.

The nature of another series: in vitro. The class given is in vitro ADME, human. Conditions: human liver microsomes, 5 µM test compound, 37 °C, 2 h; for remaining at 2 h, 5 µM: read-out: % remain (HLM, 2 h). The method, boiled down:
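HLM diluted to 5 mg/mL in 100 mM KPO4, preincubated 10 min at 37 °C with NADPH-regenerating system. Compound (5 µM final) incubated at 37 °C in triplicate, sampled at 0 and 2 h into ice-cold acetonitrile, then LC-MS analysis.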
Background: Microsomes from liver hold many membrane-bound enzymes, among them those of drug oxidation.

In series [4] the test system is VEGF dependent retinal neovascularization. Description: Neonatal rat model of retinopathy of prematurity. The class given is in vivo. The settings on record: Model ROP, intravitreal, 5 mg/ml, vehicle PEG/water 70:30.
The conditions of series [5]: vehicle PEG400:H2O pH 2.3 60:40.
A further series in a line: in vivo. The settings on record: mouse, plasma, pH 2.3.
The target in series [6] is unphosphorylated VEGF-R2Δ50 (Homo sapiens, UniProt P35968, DEL940-989/E990V). The series can be described thus: biochemical. The settings on record: read-out: FLVK ** (% inhibition).
Sequence of unphosphorylated VEGF-R2Δ50 (P35968 with tags, fused parts or gaps DEL940-989/E990V limits assumed): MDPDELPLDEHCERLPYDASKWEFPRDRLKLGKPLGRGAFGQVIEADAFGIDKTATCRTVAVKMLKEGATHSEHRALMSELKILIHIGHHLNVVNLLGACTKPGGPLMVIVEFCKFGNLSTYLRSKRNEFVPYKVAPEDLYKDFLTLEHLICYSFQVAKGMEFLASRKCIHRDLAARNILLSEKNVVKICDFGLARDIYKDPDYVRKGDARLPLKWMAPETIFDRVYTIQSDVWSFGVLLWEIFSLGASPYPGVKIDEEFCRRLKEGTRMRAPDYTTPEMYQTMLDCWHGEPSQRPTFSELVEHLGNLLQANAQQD
The mark [7] stands for this setting: Table 1, compound concentration 1 µM.
[8] abbreviates: Table 1, + albumin, read-out: HUVEC + albumin IC50.
The mark [9] stands for this setting: MV522, Table 1, read-out: MV522 IC50.

Sequence of LCK tyrosine kinase (P06239 223-509 P223M/C224D): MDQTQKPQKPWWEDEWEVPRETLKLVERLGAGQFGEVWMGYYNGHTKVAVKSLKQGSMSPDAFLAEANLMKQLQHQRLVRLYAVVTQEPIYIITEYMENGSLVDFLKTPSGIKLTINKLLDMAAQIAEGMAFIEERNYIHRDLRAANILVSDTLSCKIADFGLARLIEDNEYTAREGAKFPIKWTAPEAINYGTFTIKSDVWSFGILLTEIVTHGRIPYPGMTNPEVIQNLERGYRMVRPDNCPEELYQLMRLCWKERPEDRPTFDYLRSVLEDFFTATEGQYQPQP
Sequence of human FGF-R1 (P11362 456-766 L457V/C488A/C584S): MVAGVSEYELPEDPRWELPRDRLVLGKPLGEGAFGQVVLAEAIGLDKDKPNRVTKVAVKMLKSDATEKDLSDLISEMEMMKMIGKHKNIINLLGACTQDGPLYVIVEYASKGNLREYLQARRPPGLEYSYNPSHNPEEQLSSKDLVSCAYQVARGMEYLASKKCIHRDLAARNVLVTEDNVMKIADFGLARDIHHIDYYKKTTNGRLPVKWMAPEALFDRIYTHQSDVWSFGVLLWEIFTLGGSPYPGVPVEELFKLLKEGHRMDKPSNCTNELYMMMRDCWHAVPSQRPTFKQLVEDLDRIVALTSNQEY

Take `COc1cc(-c2ccc3c(-c4cc5ccccc5[nH]4)n[nH]c3c2)ccc1O` [2(d), 3-(1H-Indol-2-yl)-6-(3-methoxy-4-hydroxy-phenyl)-1H-indazole]: the Ki came to 68 nM at human FGF-R1 (Table 1, read-out: FGF-P* (Ki)) and 91 nM at human CHK1 (FL-CHK1). The inhibition at 1 µM on LCK tyrosine kinase came to 43%. The inhibition at 10 µM in series [1] (read-out: % Inhibition Tie2-P, compound tested at 10 µM) came out at 90%. The half-maximal inhibitory concentration (IC50) is 450 nM in series [2] (read-out: HUVEC IC50 (nM)) and 0.18 µM in series [3] (MV522, read-out: MV522 IC50 (µM)).
At human FGF-R1, `CC(=O)Nc1cccc(Oc2ccc3c(/C=C/c4ccccc4)n[nH]c3c2)c1` [4(b), N-[3-(3-Styryl-1H-indazol-6-yloxy)-phenyl]-acetamide] gave a Ki of 4.9 nM. Moreover, the inhibition at 1 µM at LCK tyrosine kinase (setting [7]) worked out at 13%; in series [1], 29%. Besides, the IC50 in series [2] (setting [8]) turned out to be 205 nM; in series [2] (Table 1, read-out: HUVEC IC50), 25 nM; in series [3] (setting [9]), 3.2 µM. For the same molecule, the remaining at 2 h, 5 µM in the series “in vitro” was 63%.
Turning to `Cc1cnc(C(=O)Nc2cccc(Oc3ccc4c(/C=C/c5ccccc5)n[nH]c4c3)c2)s1` [5(a), 5-Methyl-thiazole-2-carboxylic acid {3-(3-styryl-1H-indazol-6-yloxy)-phenyl]-amide], the inhibition at 1 µM at LCK tyrosine kinase (setting [7]) was found to be 28%; in series [1], 44%. Moreover, the IC50 was found to be 12 nM in series [2] (Table 1, read-out: HUVEC IC50) and 9.6 µM in series [3] (setting [9]).
Consider `Cc1cccc(C(=O)Nc2cccc(Oc3ccc4c(/C=C/c5ccccc5)n[nH]c4c3)c2)c1` [5(b), 3-Methyl-N-[3-(3-styryl-1h-indazol-6-yloxy)-phenyl]-benzamide], for which, at LCK tyrosine kinase (setting [7]), the inhibition at 1 µM was determined as 78%. For the same molecule, the IC50 in series [2] (setting [8]) came out at 33 nM; in series [2] (Table 1, read-out: HUVEC IC50), 3.7 nM; in [3] (setting [9]) it was 8.5 µM. Moreover, the “% Inhibition” value in [4] was found to be 45%. The “Initial Evaluation” value in series [4] was “++ (two pluses being judged to be approximately 25-75 % regression)”.
On to `CC(=O)Nc1cccc(N(C)c2ccc3c(/C=C/c4ccccc4)n[nH]c3c2)c1` [12(a), N-{3-[Methyl-(3-styryl-1H-indazol-6-yl)-amino]-phenyl]-acetamide], for which, at LCK tyrosine kinase (setting [7]), the inhibition at 1 µM is 17%. The IC50 in series [2] (setting [8]) is 87 nM; in series [2] (Table 1, read-out: HUVEC IC50) it was 6 nM; in [3] (setting [9]), 2.1 µM.
As to `CN(c1cccc(NC(=O)c2ccccc2)c1)c1ccc2c(/C=C/c3ccc4c(c3)OCO4)n[nH]c2c1` [16(a), N-(3-{[3-(2-Benzo[1,3]dioxol-5-yl-vinyl)-1H-indazol-6-yl]-methyl-amino}-phenyl)-benzamide], the results for the inhibition at 1 µM (at human FGF-R1 (Table 1); on LCK tyrosine kinase (setting [7]); in [1]) were 65%, 28% and 10%, respectively. The IC50 in series [2] (setting [8]) turned out to be 112 nM; in series [3] (setting [9]), 8 µM. The remaining at 2 h, 5 µM in “in vitro” is 7%.
As for `O=C(c1cccc(NC(=O)c2cccc3[nH]ccc23)c1)c1ccc2c(/C=C/c3ccccc3)n[nH]c2c1` [19(f), 6-[3-(indol-4-ylcarboxamido)benzoyl]-3-E-styryl-1H-indazole], the inhibition at 1 µM amounted to 58% at human FGF-R1 (Table 1) and 52% at LCK tyrosine kinase (setting [7]). For the same molecule, the IC50 amounted to 16 nM in series [2] (setting [8]); 2.3 nM in series [2] (Table 1, read-out: HUVEC IC50); 3.9 µM in series [3] (setting [9]). Also, the “% remain (HLM, 2 h)” value in “in vitro” is reported as 98%.
On to `CC(C)C(=O)Nc1cccc(C(=O)c2ccc3c(/C=C/c4ccccc4)n[nH]c3c2)c1` [19(h), 6-[3-(2-methylpropionamido)benzoyl]-3-E-styryl-1H indazole], for which the IC50 in series [2] (Table 1, read-out: HUVEC IC50) turned out to be 600 nM; in series [3] (setting [9]) it was 7.9 µM.
For `O=C(c1cccc(NC(=O)c2ccccn2)c1)c1ccc2c(/C=C/c3ccccc3)n[nH]c2c1` [19(k), 6-[3-(pyridin-2-ylcarboxamido)benzoyl)-3-E-styryl-1H-indazole], the inhibition at 1 µM at human FGF-R1 (Table 1) was determined as 41%; at LCK tyrosine kinase (setting [7]) it was 37%. The half-inhibitory concentration (IC50) turned out to be 2.6 nM in series [2] (Table 1, read-out: HUVEC IC50) and 4 µM in [3] (setting [9]). Further, in “in vitro”, the “% remain (HLM, 2 h)” value is on record as 58%. Also, the T1/2 came to 2.2 h in series [5] (IP, 25 mg/kg) and 2.2 h in series [5] (PO, 50 mg/kg). Also, in series [5] (PO, 50 mg/kg), the “Cmin (7 hr conc.)” value was found to be 4 ng/mL. For the same molecule, the AUC was found to be 428 ng·h/mL in the series “in vivo” (ip, 25 mg/kg) and 19 ng·h/mL in “in vivo” (po, 50 mg/kg). For the same molecule, the inhibition at 0.05 µM in [6] turned out to be 100%.
`O=C(c1cccc(NC(=O)c2cc(Cl)ccn2)c1)c1ccc2c(/C=C/c3ccccc3)n[nH]c2c1` [19(n), 6-[3-(4-chloropyridin-2-ylcarboxamido)benzoyl)-3-E-styryl-1H-indazole]: the inhibition at 1 µM stood at 48% at human FGF-R1 (Table 1) and 26% on LCK tyrosine kinase (setting [7]). For the same molecule, the IC50 in [2] (setting [8]) stood at 23 nM; in series [2] (Table 1, read-out: HUVEC IC50), 3.4 nM; in [3] (setting [9]), 2.9 µM.
As to `CC(=O)Nc1cccc(Sc2ccc3c(/C=C/c4ccccc4)n[nH]c3c2)c1` [20(a), 6-(3-Acetamido-phenylsulfanyl)-3-styryl-1H-indazole], the half-inhibitory concentration (IC50) in [2] (Table 1, read-out: HUVEC IC50) was determined as 200 nM; in [3] (setting [9]), 9.4 µM.
Take `C=C(c1cccc(NC(=O)c2ccccc2)c1)c1ccc2c(/C=C/c3ccccc3)n[nH]c2c1` [22(b), 6-(1-(3-(Benzoylamido)phenyl)-vinyl)-3-styryl-1H-indazole]: the IC50 in [2] (Table 1, read-out: HUVEC IC50) came out at 4.8 nM; in [3] (setting [9]) it was 8.5 µM.
Take `O=C(Nc1cccc(Cl)c1)c1ccccc1Sc1ccc2c(/C=C/c3ccccn3)n[nH]c2c1` [Reference Example 33(d), 6-[2-(3-chlorophenylcarbamoyl)phenylsulfanyl]-3-E-[2-(pyridin-2-yl)ethenyl]-1H-indazole]: the inhibition at 1 µM at LCK tyrosine kinase (setting [7]) turned out to be 55%. Moreover, the IC50 in [2] (setting [8]) was above 300 nM; in series [3] (setting [9]) it was 8 µM. Further, in “in vitro”, the “% remain (HLM, 2 h)” value was 22%.
